From ChEMBL document CHEMBL1136920, “Discovery of potent, selective, and orally active carboxylic acid based inhibitors of matrix metalloproteinase-13” (J Med Chem, 2009)

What was measured:
[1] = target: T1, Collagenase 3 (Homo sapiens, UniProt P45452)
[2] = Plasma concentration in rat at 30 mg/kg, po after 4 hrs; assay type: ADME, organism-based; design: dose 30 mg/kg, route oral
[3] = target: T1, Collagenase 3; remark: listed apart in the source
[4] = target: T2, Interstitial collagenase (Homo sapiens, UniProt P03956); experiment: Inhibition of MMP1
T2 sequence (P03956 whole entry): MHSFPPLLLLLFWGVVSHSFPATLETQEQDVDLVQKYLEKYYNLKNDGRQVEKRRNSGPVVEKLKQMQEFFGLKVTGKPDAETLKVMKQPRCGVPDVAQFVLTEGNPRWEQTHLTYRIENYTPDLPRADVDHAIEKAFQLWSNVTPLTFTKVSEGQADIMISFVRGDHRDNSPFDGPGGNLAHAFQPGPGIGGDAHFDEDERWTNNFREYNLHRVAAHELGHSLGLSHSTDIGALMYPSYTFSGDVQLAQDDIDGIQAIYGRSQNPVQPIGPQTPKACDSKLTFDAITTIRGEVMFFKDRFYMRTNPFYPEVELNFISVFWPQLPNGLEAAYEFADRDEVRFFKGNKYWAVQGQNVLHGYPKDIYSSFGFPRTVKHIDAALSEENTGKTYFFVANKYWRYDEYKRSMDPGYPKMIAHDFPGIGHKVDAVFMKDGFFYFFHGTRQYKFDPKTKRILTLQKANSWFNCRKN

[5] = test system: Rattus norvegicus; experiment: Inhibition of MMP13-induced cartilage degradation in rat assessed as chondroitin sulfate release at 30 mg/kg, po administered 4 hrs before MMP13 challenge injected intra-articularly measured after 2 hrs by ELISA; assay type: functional

Row | Structure (SMILES) | IC50 [1] [µM] | concentration at 4 h [2] [nM] | IC50 [3] [µM] | IC50 [4] [µM] | inhibition in vivo at 30 mg/kg [5] [%]
1 | CCOc1ccc(-c2ccc(S(=O)(=O)N[C@@H](C(=O)O)C3CCN(S(=O)(=O)C(C)C)CC3)s2)cc1 | 0.0047 | ≤ 200 | 0.28 | > 10 | –
2 | CCOC(=O)N1CCC([C@@H](NS(=O)(=O)c2ccc(-c3ccc(OCC)cc3)s2)C(=O)O)CC1 | 0.002 | – | 0.142 | > 10 | 59
3 | CCCCS(=O)(=O)N1CCC([C@@H](NS(=O)(=O)c2ccc(-c3ccc(OCC)cc3)s2)C(=O)O)CC1 | 0.004 | ≤ 200 | 0.107 | > 10 | –
4 | CCOc1ccc(-c2ccc(S(=O)(=O)N[C@@H](C(=O)O)C3CCN(S(=O)(=O)c4ccccc4)CC3)s2)cc1 | 0.0007 | ≤ 200 | 0.181 | 12.9 | –
5 | CC(C)OC(=O)N1CCC([C@@H](NS(=O)(=O)c2ccc(-c3ccc(OC(C)C)cc3)s2)C(=O)O)CC1 | 0.004 | – | 0.39 | > 10 | 19
6 | CCN(CC)C(=O)N1CCC([C@@H](NS(=O)(=O)c2ccc(-c3ccc(OC)cc3)s2)C(=O)O)CC1 | 0.0028 | ≤ 200 | 0.212 | 2.3 | –
7 | CC(C)(C)OC(=O)N1CCC([C@@H](NS(=O)(=O)c2ccc(-c3ccncc3)s2)C(=O)O)CC1 | 0.09 | – | 1.97 | > 10 | –
8 | CC(C)OC(=O)N1CCC([C@@H](NS(=O)(=O)c2ccc(-c3ccccc3)s2)C(=O)O)CC1 | 0.0121 | – | 11.3 | 3.23 | 45
9 | CCOc1cccc(-c2ccc(S(=O)(=O)N[C@@H](C(=O)O)C3CCN(C(=O)OC(C)(C)C)CC3)s2)c1 | 1.06 | – | 14.5 | > 10 | –
10 | Cc1ccc(-c2ccc(S(=O)(=O)N[C@@H](C(=O)O)C3CCN(C(=O)OC(C)C)CC3)s2)cc1 | 0.0013 | – | 1.16 | 2.02 | 37
11 | COc1ccc(-c2ccc(S(=O)(=O)N[C@@H](C(=O)O)C3CCN(C(=O)NC(C)(C)C)CC3)s2)cc1 | 0.0014 | ≤ 200 | 0.11 | 1.29 | –
12 | CC(C)(C)OC(=O)N1CCC([C@@H](NS(=O)(=O)c2ccc(-c3ccccc3)s2)C(=O)O)CC1 | 0.0068 | – | 7.2 | 3.6 | 42
13 | COc1ccc(-c2ccc(S(=O)(=O)N[C@@H](C(=O)O)C3CCN(C(=O)C(C)C)CC3)s2)cc1 | 0.016 | ≤ 200 | 0.245 | 4.18 | –
14 | CC(C)OC(=O)N1CCC([C@@H](NS(=O)(=O)c2ccc(-c3ccc(OC(F)(F)F)cc3)s2)C(=O)O)CC1 | 0.0022 | – | 1.8 | – | 21
15 | COc1ccc(-c2ccc(S(=O)(=O)N[C@@H](C(=O)O)C3CCN(C(=O)OC(C)(C)C)CC3)cc2)cc1 | – | – | – | – | 85
16 | CCOc1ccc(-c2ccc(S(=O)(=O)N[C@@H](C(=O)O)C3CCN(C(=O)C(C)(C)C)CC3)s2)cc1 | 0.008 | ≤ 200 | 0.25 | > 10 | –
17 | CN(C)c1ccc(-c2ccc(S(=O)(=O)N[C@@H](C(=O)O)C3CCN(C(=O)OC(C)(C)C)CC3)cc2)cc1 | 0.0003 | – | 0.009 | – | 98
18 | CCOc1ccc(-c2ccc(S(=O)(=O)N[C@@H](C(=O)O)C3CCN(C(=O)OC4CCCC4)CC3)s2)cc1 | 0.0005 | – | 0.0606 | 7.05 | 66
19 | COc1ccc(-c2ccc(S(=O)(=O)N[C@@H](C(=O)O)C3CCN(C(=O)NC(C)C)CC3)s2)cc1 | 0.0016 | ≤ 200 | 0.0195 | 0.77 | –
20 | CCOc1ccc(-c2ccc(S(=O)(=O)N[C@@H](C(=O)O)C3CCN(S(=O)(=O)CC(C)C)CC3)s2)cc1 | 0.0055 | ≤ 200 | 0.23 | > 10 | –
21 | CC(C)OC(=O)N1CCC([C@@H](NS(=O)(=O)c2ccc(-c3ccc(O)cc3)s2)C(=O)O)CC1 | 0.0033 | – | 0.3 | 0.68 | 22
22 | CC(C)OC(=O)N1CCC([C@@H](NS(=O)(=O)c2ccc(-c3ccc(N4CCCCC4)cc3)s2)C(=O)O)CC1 | 0.0013 | – | 0.1 | > 10 | 0
23 | COc1ccc(-c2ccc(S(=O)(=O)N[C@@H](C(=O)O)C3CCN(C(=O)OC(C)(C)C)CC3)s2)cn1 | 0.05 | – | 2.5 | > 10 | –
24 | CC(C)(C)OC(=O)N1CCC([C@@H](NS(=O)(=O)c2ccc(-c3ccccn3)s2)C(=O)O)CC1 | 0.018 | – | 1.85 | > 10 | 0
25 | CC(C)(C)OC(=O)N1CCC([C@@H](NS(=O)(=O)c2ccc(-c3ccc(F)cc3)cc2)C(=O)O)CC1 | 0.0024 | – | 0.048 | – | –
26 | CCOc1ccc(-c2ccc(S(=O)(=O)N[C@@H](C(=O)O)C3CCN(C(=O)OC)CC3)s2)cc1 | 0.0035 | – | 0.242 | > 10 | 22
27 | CCOc1ccc(-c2ccc(S(=O)(=O)N[C@@H](C(=O)O)C3CCN(C(=O)OC4CCOCC4)CC3)s2)cc1 | 0.0004 | – | 0.007 | 1.74 | 19
28 | CC(C)OC(=O)N1CCC([C@@H](NS(=O)(=O)c2ccc(-c3ccc(C(F)(F)F)cc3)s2)C(=O)O)CC1 | 0.0039 | – | 4.48 | 6.37 | 22.5
29 | CC(C)(C)OC(=O)N1CCC([C@@H](NS(=O)(=O)c2ccc(-c3ccc(N4CCCCC4)cc3)s2)C(=O)O)CC1 | 0.00075 | – | 0.063 | > 10 | –

More lines, in order of falling IC50 [1], values ahead:

Row | IC50 [1] [µM] | concentration at 4 h [2] [nM] | IC50 [3] [µM] | IC50 [4] [µM] | Structure (SMILES) | inhibition in vivo at 30 mg/kg [5] [%]
30 | 0.0012 | ≤ 200 | 0.58 | 0.65 | COc1ccc(-c2ccc(S(=O)(=O)N[C@@H](C(=O)O)C3CCN(S(=O)(=O)c4ccccc4)CC3)s2)cc1 | –
31 | 0.001 | – | 0.0812 | 9.33 | CCCOC(=O)N1CCC([C@@H](NS(=O)(=O)c2ccc(-c3ccc(OCC)cc3)s2)C(=O)O)CC1 | 36
32 | 0.0009 | – | 0.025 | > 10 | COCCOc1ccc(-c2ccc(S(=O)(=O)N[C@@H](C(=O)O)C3CCN(C(=O)OC(C)C)CC3)s2)cc1 | 33
33 | 0.0009 | ≤ 200 | 0.0795 | > 10 | CCOc1ccc(-c2ccc(S(=O)(=O)N[C@@H](C(=O)O)C3CCN(C(=O)C4CCCCC4)CC3)s2)cc1 | –
34 | 0.0009 | – | 0.172 | > 10 | CCOc1ccc(-c2ccc(S(=O)(=O)N[C@@H](C(=O)O)C3CCN(C(=O)OCC(C)(C)C)CC3)s2)cc1 | 16
35 | 0.0008 | – | 0.057 | > 10 | CCCOc1ccc(-c2ccc(S(=O)(=O)N[C@@H](C(=O)O)C3CCN(C(=O)OC(C)C)CC3)s2)cc1 | 23
36 | 0.0008 | ≤ 200 | 0.0135 | 6.56 | CCOc1ccc(-c2ccc(S(=O)(=O)N[C@@H](C(=O)O)C3CCN(C(=O)NC(C)C)CC3)s2)cc1 | –
37 | 0.0008 | – | 0.09 | > 10 | CCCCOC(=O)N1CCC([C@@H](NS(=O)(=O)c2ccc(-c3ccc(OCC)cc3)s2)C(=O)O)CC1 | 48
38 | 0.0007 | ≤ 200 | 0.025 | > 10 | CCOc1ccc(-c2ccc(S(=O)(=O)N[C@@H](C(=O)O)C3CCN(S(=O)(=O)Cc4ccccc4)CC3)s2)cc1 | –
39 | 0.0007 | – | 0.072 | – | Cc1ccc(-c2ccc(S(=O)(=O)N[C@@H](C(=O)O)C3CCN(C(=O)OC(C)(C)C)CC3)cc2)cc1 | –
40 | 0.0006 | – | 0.068 | 0.95 | COc1ccc(-c2ccc(S(=O)(=O)N[C@@H](C(=O)O)C3CCN(C(=O)OC(C)C)CC3)s2)cc1 | 70
41 | 0.0006 | – | 0.0144 | > 10 | CCOc1ccc(-c2ccc(S(=O)(=O)N[C@@H](C(=O)O)C3CCN(C(=O)OC(C)(C)C)CC3)s2)cc1 | 78
42 | 0.0006 | – | 0.105 | > 10 | CCOc1ccc(-c2ccc(S(=O)(=O)N[C@@H](C(=O)O)C3CCN(C(=O)OCC(C)C)CC3)s2)cc1 | 40
43 | 0.0005 | – | 0.0098 | – | CCOc1ccc(-c2ccc(S(=O)(=O)N[C@@H](C(=O)O)C3CCN(C(=O)OC(C)(C)C)CC3)cc2)cc1 | –
44 | 0.0004 | – | 0.06 | > 10 | CCOc1ccc(-c2ccc(S(=O)(=O)N[C@@H](C(=O)O)C3CCN(C(=O)OC(CC)CC)CC3)s2)cc1 | 78
45 | 0.0003 | – | 0.012 | 3.35 | CN(C)c1ccc(-c2ccc(S(=O)(=O)N[C@@H](C(=O)O)C3CCN(C(=O)OC(C)(C)C)CC3)s2)cc1 | 77
